Counter-ions that a name gives are not always drawn. Like-named read-outs stand apart in the source and are kept apart here. Each block holds one compound with its values, some of them ahead of it.
Experiments:
human MCH1 receptor [1] = target: T1, human MCH1 receptor (Homo sapiens, UniProt Q99705); test: Intracellular calcium response to MCH in COS-7 cells transfected with MCH1 (fluo-3, FLIPR): antagonist potency; type: cell-based; set-up: expressed in transfected cells; host or cells: COS-7; conditions: read-out: Kb (nM) hMCH1
Text: MCH1 antagonist compounds were identified by their ability to inhibit the MCH-elicited response. […]. From the IC50 values, the antagonist potency (Kb)was derived using the Cheng-Prussof correction (Lazareno and Birdsall, 1993). […]

human MCH1 receptor [2] = target: T1, human MCH1 receptor; test: Competition binding, membrane preparations of A293 cells expressing the human MCH1 receptor, [3H] Compound 10 as radioligand; set-up: expressed in transfected cells; conditions: Table 3b; A293 cell membranes, [3H] Compound 10; read-out: hMCH1* Ki
Procedure: TRITIATED METHYL (4S)-3-{[(3-{4-[3-(ACETYLAMINO)PHENYL]-1-[…]}PROPYL)AMINO]CARBONYL}-4-(3,4-DIFLUOROPHENYL)-6-(METHOXYMETHYL)-2-OXO-1,2,3,4-TETRAHYDRO-5-PYRIMIDINECARBOXYLATE ([^3H] COMPOUND 10): This radiochemical synthesis was carried out by Amersham Pharmacia Biotech, Cardiff, Wales. A methanolic solution of methyl (4S)-3-({[3-(4-[3-(acetylamino)phenyl]-3,6-dihydro-1(2H)pyridinyl)propyl]amino}carbonyl)-4-(3,4-difluorophenyl)-6-(methoxymethyl)-2-oxo-1,2,3,4-tetrahydro-5-pyrimidinecarboxylate was exposed to tritium gas at 1 atmosphere pressure in the presence of 5% palladium on carbon with stirring overnight to give the tritiated methyl (4S)-3-{[(3-{4-[3-(acetylamino)phenyl]-1-piperidinyl}propyl)amino]carbonyl}-4-(3,4-difluorophenyl)-6-(methoxymethyl)-2-oxo-1,2,3,4-tetrahydro-5-pyrimidinecarboxylate ((+)-isomer) After purification by reverse phase HPLC (Hypersil ODS, 4.6×100 mm, methanol:H2O:Et3N 10:90:1 to 100:0:1 in 15 min at 1.0 mL/min, with radiochemical and UV detection), this product was used as a radioligand in the MCH1 binding assays. The same procedure was carried out with H2 gas in place of ^3H2 to afford the non-radioactive version of Compound 10.

human GALR1 receptor = target: T2, human GALR1 receptor (Homo sapiens, UniProt P47211); test: Binding affinity at the human GALR1 receptor; conditions: read-out: hGALR1 Ki
T2 construct: expressed in transfected cells
T2 sequence (P47211 1-349): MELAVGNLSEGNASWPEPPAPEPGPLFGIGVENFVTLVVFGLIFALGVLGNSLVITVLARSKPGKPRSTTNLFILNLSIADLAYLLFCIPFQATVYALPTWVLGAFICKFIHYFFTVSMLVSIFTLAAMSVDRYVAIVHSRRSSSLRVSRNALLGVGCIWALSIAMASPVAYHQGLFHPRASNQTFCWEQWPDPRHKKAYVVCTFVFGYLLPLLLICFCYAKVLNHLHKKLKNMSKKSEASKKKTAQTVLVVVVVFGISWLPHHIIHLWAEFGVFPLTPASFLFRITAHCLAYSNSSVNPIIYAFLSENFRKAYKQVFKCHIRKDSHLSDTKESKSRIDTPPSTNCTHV
Text: (§1) The design of such compounds can be optimized by determining their binding affinity at the recombinant MCH1, NPY1, NPY2, Gal1, Gal2, Gal3, and 5HT2C receptors. The methods to obtain the cDNA of the receptor, express said receptors in heterologous systems, and carry out assays to determine binding affinity are described in the following publications: human NPY1 (Larhammar et al., 1992), human NPY5 (U.S. Pat. No. 5,602,024, the disclosure of which is hereby incorporated by reference in its entirety into this application), human Gall (Habert-Ortoli et al., 1994), human Gal2 (Smith et al., 1997), human Gal3 (Smith et al., 1998), and rat 5HT2C (Julius et al., 1988). Additionally, the compounds would optimally not bind at the following receptors due to possible side effects: human H1 histamine and human H2 histamine receptors; human alpha-1A adrenergic, human alpha-1D adrenergic, human alpha-2A adrenergic, human alpha-2B adrenergic, and human alpha-2C adrenergic receptors; human dopamine D1, D2, D3, D4, and D5 receptors; the β-adrenoceptor; and the human 5HT1A, human 5HT1B, human 5HT1D, human 5HT1E, human 5HT1F, human 5HT2A, rat 5HT2C, human 5HT4, human 5HT6, and human 5HT7 receptors.

rat 5HT2C receptor = target: T3, rat 5HT2C receptor (Rattus norvegicus, UniProt P08909); test: Binding affinity at the rat 5HT2C receptor; conditions: read-out: r5HT2C Ki
T3 construct: expressed in transfected cells
T3 sequence (P08909 33-460): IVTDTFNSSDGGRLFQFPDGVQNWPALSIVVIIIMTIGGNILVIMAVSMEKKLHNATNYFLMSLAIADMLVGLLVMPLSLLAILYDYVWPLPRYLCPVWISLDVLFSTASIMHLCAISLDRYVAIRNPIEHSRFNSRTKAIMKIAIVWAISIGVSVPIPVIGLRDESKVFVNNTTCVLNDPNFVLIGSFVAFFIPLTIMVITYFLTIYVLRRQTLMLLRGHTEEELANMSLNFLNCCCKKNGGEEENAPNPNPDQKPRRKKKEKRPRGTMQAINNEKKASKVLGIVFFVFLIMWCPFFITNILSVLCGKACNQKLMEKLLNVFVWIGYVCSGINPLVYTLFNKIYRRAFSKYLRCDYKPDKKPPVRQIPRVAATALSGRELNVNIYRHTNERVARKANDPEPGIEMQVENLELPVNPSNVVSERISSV
Text: as §1
Other 5HT Receptors: Other serotonin receptor binding assays were performed according to published methods: rat 5HT2C receptor (Julius et al., 1988); and 5HT6 (Monsma, et al., 1993). The binding assays using the 5HT4 receptor were performed according to the procedures described in U.S. Pat. No. 5,766,879, the disclosure of which is hereby incorporated by reference in its entirety into this application.

human GALR2 receptor = target: T4, human GALR2 receptor (Homo sapiens, UniProt O43603); test: Binding affinity at the human GALR2 receptor; conditions: read-out: hGALR2 Ki
T4 construct: expressed in transfected cells
T4 sequence (O43603 1-387): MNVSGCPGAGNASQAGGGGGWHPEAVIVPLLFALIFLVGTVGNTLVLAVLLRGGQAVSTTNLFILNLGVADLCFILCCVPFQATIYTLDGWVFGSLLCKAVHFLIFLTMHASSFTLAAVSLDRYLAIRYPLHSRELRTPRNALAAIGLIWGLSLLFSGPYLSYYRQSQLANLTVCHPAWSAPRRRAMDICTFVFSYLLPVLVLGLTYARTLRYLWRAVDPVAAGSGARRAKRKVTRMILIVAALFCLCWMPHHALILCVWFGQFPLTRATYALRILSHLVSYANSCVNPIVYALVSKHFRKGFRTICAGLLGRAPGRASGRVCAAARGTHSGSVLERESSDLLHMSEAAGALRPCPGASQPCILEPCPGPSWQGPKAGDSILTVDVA
Text: as §1

human GALR3 receptor = target: T5, human GALR3 receptor (Homo sapiens, UniProt O60755); test: Binding affinity at the human GALR3 receptor; conditions: read-out: hGALR3 Ki
T5 construct: expressed in transfected cells
T5 sequence (O60755 1-368): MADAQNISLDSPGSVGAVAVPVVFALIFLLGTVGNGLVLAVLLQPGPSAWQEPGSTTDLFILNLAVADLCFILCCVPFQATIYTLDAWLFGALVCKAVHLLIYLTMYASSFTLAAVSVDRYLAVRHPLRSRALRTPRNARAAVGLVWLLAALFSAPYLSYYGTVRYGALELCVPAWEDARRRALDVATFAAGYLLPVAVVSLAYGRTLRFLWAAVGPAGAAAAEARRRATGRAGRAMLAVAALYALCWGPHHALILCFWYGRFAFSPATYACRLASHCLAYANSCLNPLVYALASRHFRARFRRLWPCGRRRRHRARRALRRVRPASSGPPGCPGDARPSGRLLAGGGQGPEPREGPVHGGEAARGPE
Text: as §1

T1 sequence (Q99705 whole entry): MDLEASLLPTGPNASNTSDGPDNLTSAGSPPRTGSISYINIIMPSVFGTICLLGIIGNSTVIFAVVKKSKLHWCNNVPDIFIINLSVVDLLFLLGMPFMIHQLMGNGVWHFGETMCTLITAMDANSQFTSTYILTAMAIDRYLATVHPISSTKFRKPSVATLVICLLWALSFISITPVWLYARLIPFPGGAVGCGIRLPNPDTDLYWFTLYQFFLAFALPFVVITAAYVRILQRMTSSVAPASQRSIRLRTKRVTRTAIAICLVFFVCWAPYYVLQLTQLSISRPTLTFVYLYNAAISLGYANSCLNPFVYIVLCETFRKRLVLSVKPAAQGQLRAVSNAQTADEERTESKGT

melting point: 243 to 244 °C
Compound: O=C(CCCN1CCC(NC(=O)c2ccccc2)CC1)c1ccc(Cl)cc1 (as salt: HCl) [Example 28, [3-(4-CHLOROBENZOYL)]PROPYL-4-BENZAMIDOPIPERIDINE]

melting point: 82 to 84 °C
Compound: COCC1=C(C(=O)OC)C(c2ccc(F)c(F)c2)N(C(=O)NCCCN2CCC(OC(C)=O)(c3ccccc3)CC2)C(=O)N1 (centres unmarked) (as salt: hydrochloride) [Example 3, (1)-1,2,3,6-TETRAHYDRO-1-{N-[3-(4-O-ACETYL)-4-PHENYLPIPERIDIN-1-YL]PROPYL}CARBOXAMIDO-5-METHOXYCARBONYL-4-METHOXYMETHYL-6-(3,4-DIFLUOROPHENYL)-2-OXOPYRIMIDINE]

melting point: 150 to 153 °C
Compound: COC(=O)C1=C(C)NC(=O)N(C(=O)NCCCN2CCN(c3ccccc3[N+](=O)[O-])C[C@@H]2C)C1c1ccc(F)c(F)c1 (single isomer, unassigned; (+)) (as salt: HCl) [Example 34]

melting point: 158 to 159 °C
Compound: O=C(NC1CCN(CCC2CCc3ccccc3C2=O)CC1)c1ccccc1 (centres unmarked) [Example 5]

Further lines, the compound ahead of its results:

Compound: COC(=O)C1=C(C)NC(=O)N(C(=O)NCCCN2CCC3(CC2)OCc2ccccc23)C1c1ccc(F)c(F)c1 (centres unmarked) (as salt: hydrochloride) [Example 20, 4-(3,4-DIFLUORPHENYL)-6-METHYL-2-OXO-3-{[3-(4-SPIRO[ISOBENZOFURAN-1(3H),4′-PIPERIDINE]PROPYL}-1,2,3,4-TETRAHYDROPYRIMIDINE-5-CARBOXYLIC ACID METHYL ESTER]
melting point: 178 to 182 °C

Compound: COC(=O)C1=C(C)NC(=O)N(C(=O)NCCCN2CCN(c3ccccc3C)CC2)C1c1ccc(F)c(F)c1 (centres unmarked) (as salt: hydrochloride) [Example 35, 1,2,3,6-TETRAHYDRO-1{N-[4-(2′-METHYL-PHENYL)PIPERAZIN-1-YL]-PROPYL}-CARBOXAMIDO-4-METHYL-6-(3,4-DIFLUOROPHENYL)-2-OXO-PYRIMIDINE]
melting point: 66 to 71 °C

Compound: COC(=O)C1=C(C)NC(=O)N(C(=O)NCCCN2CCC3(CCc4ccccc43)CC2)C1c1ccc2nonc2c1 (racemic) (as salt: hydrochloride) [Example 21]
melting point: 155 to 157 °C

Compound: COC(=O)C1=C(C)NC(=O)N(C(=O)NCCCN2CCC3(CC2)OCc2ccccc23)C1c1ccc2nonc2c1 (single isomer, unassigned) (as salt: hydrochloride) [Example 18]
melting point: 180 to 182 °C

Compound: COCC1=C(C(=O)OC)C(c2ccc(F)c(F)c2)N(C(=O)NCCCN2CCC(c3cccc(OC)c3)CC2)C(=O)N1 (single isomer, unassigned; (+)) [Example 9, (+)-1,2,3,6-TETRAHYDRO-1-N-[4-(3-METHOXY)-PHENYL}-PIPERIDIN-1-YL]-PROPYL-CARBOXAMIDO-4-METHOXYMETHYL-6-(3,4-DIFLUOROPHENYL)-2-OXOPYRIMIDINE-5-CARBOXYLIC ACID METHYL ESTER]
melting point: 80 to 84 °C
Kb (human MCH1 receptor [1]): 35 nM

Compound: COCC1=C(C(=O)OC)C(c2ccc(F)c(F)c2)N(C(=O)NCCCN2CCC(O)(c3ncccc3C)CC2)C(=O)N1 (single isomer, unassigned; (+)) [Example 16, (+)-1,2,3,6-TETRAHYDRO-1-{N-[4-HYDROXY-4-(2-PYRIDYL)-PIPERIDIN-1-YL]PROPYL}CARBOXAMIDO-4-METHOXYMETHYL-6-(3,4-DIFLUOROPHENYL)-2-OXOPYRIMIDINE-5-CARBOXYLIC ACID METHYL ESTER]
melting point: 132 to 135 °C
Kb (human MCH1 receptor [1]): 329 nM

Compound: COCC1=C(C(=O)OC)C(c2ccc(F)c(F)c2)N(C(=O)NCCCN2CC=C(c3cccc(NC(C)=O)c3)CC2)C(=O)N1 (centres unmarked) [Example 2, METHYL 3-[(3-4-[3-(ACETYLAMINO)PHENYL]-1,2,3,6-TETRAHYDRO-1-PYR-IDINYLPROPYL)AMINO]CARBONYL-4-(3,4-DIFLUOROPHENYL)-6-(METHOXY-METHYL)-2-OXO-1,2,3,4-TETRAHYDRO-5-PYRIMIDINECARBOXYLATE]
Ki (human MCH1 receptor [2]): 49 nM
Ki (human GALR1 receptor; Table 3a): > 50 µM
Ki (human GALR1 receptor; Table 3b): > 50 µM
Ki (rat 5HT2C receptor; Table 3a): 39.8 µM
Ki (rat 5HT2C receptor; Table 3b): 39.8 µM
Ki (human GALR2 receptor; Table 3a): > 50 µM
Ki (human GALR2 receptor; Table 3b): > 50 µM
Ki (human GALR3 receptor; Table 3a): > 50 µM
Ki (human GALR3 receptor; Table 3b): > 50 µM

Compound: COC(=O)C1=C(C)NC(=O)N(C(=O)NCCCN2CCC3(CC2)C(=O)CCc2ccccc23)C1c1ccc(F)c(F)c1 (centres unmarked) [Example 24]
Kb (human MCH1 receptor [1]): 102 nM

Compound: COC(=O)C1=C(C)NC(=O)N(C(=O)NCCCN2CCC3(CCc4ccccc43)CC2)C1c1ccc(F)c(F)c1 (centres unmarked) [Example 32]
melting point: 150 to 153 °C

From patent US20040038855A1 (priority 1999, published 2004)
